Measurements: patent US11286268B1, “EIF4E-inhibiting compounds and methods” (EFFECTOR THERAPEUTICS, INC., priority 2019, dated 2022)
Like-named read-outs stand apart in the source and are kept apart here.

Molecular target: recombinant eIF4E (Homo sapiens (Human), UniProt P06730)
Test: Fluorescence polarization competition assay for eIF4E binding potency
In short: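 Competitive displacement format: compounds compete with a fluorescent m7GDP tracer (20 nM) for 75 nM recombinant eIF4E. Incubation is 30 min at room temperature, protected from light, with 1% DMSO. Polarization read gives IC50 over eight 3-fold concentrations.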

[1] = fluorescence polarization competition, 75 nM recombinant eIF4E, 20 nM EDA-m7GDP-ATTO-550, IC50 class, read-out: elF4E FP
[2] = inhibition of eIF4E/EDA-m7GDP-ATTO-550 binding by 50%, Table 4B calculated values, read-out: IC50

Sequence of recombinant eIF4E (P06730 whole entry): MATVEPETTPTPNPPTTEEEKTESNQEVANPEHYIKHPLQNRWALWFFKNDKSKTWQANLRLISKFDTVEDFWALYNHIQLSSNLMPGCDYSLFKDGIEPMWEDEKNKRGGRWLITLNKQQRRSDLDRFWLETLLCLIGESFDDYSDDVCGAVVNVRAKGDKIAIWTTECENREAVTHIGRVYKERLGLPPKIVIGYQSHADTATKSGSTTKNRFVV

Row | SMILES | IC50 [1] | IC50 [2]
1 | O=C(O)c1csc2c(-c3cc(Cl)ccc3OCCn3c(=O)c4ccccc4c4cnncc43)ccnc12 [compound 658] | > 1000 nM | 1290 nM
2 | Cc1nc2c(ccc3cnncc32)c(=O)n1CCOc1ccc(Cl)cc1-c1ccnc2c(C(=O)O)csc12 [compound 659] | < 50 nM | 26.4 nM
3 | Cc1nc2cc(C(F)(F)F)cc(C#N)c2c(=O)n1CCOc1ccc(Cl)cc1-c1cncc(-c2nn[nH]n2)c1 [compound 660] | 50 to 1000 nM | 258 nM
4 | Cc1nc2cc(C(F)(F)F)cc(C#N)c2c(=O)n1CCOc1ccc(Cl)cc1-c1ccnc2c(C(=O)O)cnn12 [compound 661] | < 50 nM | 12.1 nM
5 | Cc1nc2cc(C(F)(F)F)cc(C#N)c2c(=O)n1CCOc1ccc(Cl)cc1-c1ccnc(-c2nnn[nH]2)c1 [compound 662] | 50 to 1000 nM | 144 nM
6 | Cc1nc2cc(C(F)(F)F)cc(C#N)c2c(=O)n1CCOc1ccc(Cl)cc1-c1ccnc2c(O)csc12 [compound 663] | 50 to 1000 nM | 332 nM
7 | COC(=O)c1sc2cc(-c3cc(Cl)ccc3OCCn3c(C)nc4cc(C(F)(F)F)cc(C#N)c4c3=O)cnc2c1O [compound 664] | 50 to 1000 nM | 153 nM
8 | Cc1c(CC#Cc2ccc(Cl)cc2-c2ccnc3c(C(=O)O)csc23)c(=O)c2c(C#N)cc(C(F)(F)F)cc2n1C [compound 665] | < 50 nM | 16.5 nM
9 | Cc1nc2cc(C(F)(F)F)cc(C#N)c2c(=O)n1CCOc1ccc(Cl)cc1-c1ccnc2c(C(=O)O)c(C(F)(F)F)sc12 [compound 666] | 50 to 1000 nM | 268 nM
10 | Cc1nc2cc(C(F)(F)F)cc(C#N)c2c(=O)n1CCOc1ccc(Cl)cc1-c1ccnc2c(C(=O)O)c(C(C)C)sc12 [compound 667] | < 50 nM | 46.7 nM
11 | Cc1cc(-c2cc(Cl)ccc2OCCn2c(C)nc3cc(C(F)(F)F)cc(C#N)c3c2=O)c2sc(C)c(C(=O)O)c2n1 [compound 668] | < 50 nM | 7.76 nM
12 | Cc1c(CC#Cc2ccc(Cl)cc2-c2ccnc3c(C(=O)O)csc23)c(=O)c2c(C#N)c(Cl)c(C(F)(F)F)cc2n1C [compound 669] | < 50 nM | 36.4 nM
13 | Cc1cc(-c2cc(Cl)ccc2OCCn2c(C)nc3c(ccc4cnncc43)c2=O)c2scc(C(=O)O)c2n1 [compound 671] | 50 to 1000 nM | 77.7 nM
14 | Cc1nc2cc(C(F)(F)F)cc(C#N)c2c(=O)n1CCOc1ccc(Cl)cc1-c1cc(C2CC2)nc2c(C(=O)O)csc12 [compound 672] | 50 to 1000 nM | 106 nM
15 | Cc1ncc(C#N)c2c(=O)n(CCOc3ccc(Cl)cc3-c3ccnc4c(C(=O)O)csc34)c(C)nc12 [compound 674] | < 50 nM | 
16 | Cc1cc(-c2cc(Cl)ccc2OCCn2c(C)nc3cc(C(F)(F)F)c(N4CCN(C)CC4)nc3c2=O)c2scc(C(=O)O)c2n1 [compound 676] | < 50 nM | 6.22 nM
17 | Cc1cc(-c2cc(Cl)ccc2OCCn2c(C)nc3c(C(F)(F)F)cc(N4CCN(C)CC4)nc3c2=O)c2scc(C(=O)O)c2n1 [compound 677] | < 50 nM | 5.44 nM
18 | Cc1cc(-c2cc(Cl)ccc2OCCn2c(C)nc3ccc(N4CCN(C)CC4)nc3c2=O)c2scc(C(=O)O)c2n1 [compound 678] | 50 to 1000 nM | 53.8 nM
19 | Cc1cc(-c2cc(Cl)ccc2OCCn2c(C)nc3c(C(F)(F)F)cc(Cl)nc3c2=O)c2scc(C(=O)O)c2n1 [compound 680] | 50 to 1000 nM | 56.6 nM
20 | Cc1nc2cc(C(F)(F)F)c(N3CCN(C)CC3)nc2c(=O)n1CC#Cc1ccc(Cl)cc1-c1ccnc2c(C(=O)O)csc12 [compound 682] | < 50 nM | 6.21 nM
21 | Cc1nc2cc(C(F)(F)F)c(N3CCN(C)CC3)c(C#N)c2c(=O)n1CCOc1ccc(Cl)cc1-c1ccnc2ccsc12 [compound 705] | < 50 nM | 19.1 nM
22 | Cc1ncc(F)cc1-c1c(C(F)(F)F)cc2nc(C)n(CCOc3ccc(Cl)cc3-c3ccnc4ccsc34)c(=O)c2c1C#N [compound 706] | 50 to 1000 nM | 
23 | Cc1nc2cnc(N3CCN(C)CC3)c(C#N)c2c(=O)n1CCOc1ccc(Cl)cc1-c1ccnc2c(C(=O)O)csc12 [compound 707] | < 50 nM | 17.8 nM

Continued, values first:

Row | IC50 [1] | IC50 [2] | SMILES
24 | < 50 nM | 18 nM | Cc1cc(-c2cc(Cl)ccc2OCCn2c(C)nc3cc(C(F)(F)F)c(CN(C)C)c(C#N)c3c2=O)c2sc(C)c(C(=O)O)c2n1 [compound 670]
25 | < 50 nM | 25.3 nM | Cc1cc(-c2cc(Cl)ccc2OCCn2c(C)nc3c(C)ncc(C#N)c3c2=O)c2scc(C(=O)O)c2n1 [compound 673]
26 | < 50 nM | 7.77 nM | Cc1cccc(-c2c(C(F)(F)F)cc3nc(C)n(CCOc4ccc(Cl)cc4-c4cc(C)nc5c(C(=O)O)csc45)c(=O)c3c2C#N)n1 [compound 675]
27 | 50 to 1000 nM | 160 nM | Cc1cc(-c2cc(Cl)ccc2OCCn2c(C)nc3ccc(N(C)C)nc3c2=O)c2scc(C(=O)O)c2n1 [compound 679]
28 | < 50 nM | 40.3 nM | Cc1cccc(-c2c(Cl)cc3nc(C)n(CCOc4ccc(Cl)cc4-c4cc(C)nc5c(C(=O)O)c(C)sc45)c(=O)c3c2C#N)n1 [compound 683]
29 | < 50 nM | 15 nM | Cc1cc(F)cc(-c2c(C(F)(F)F)cc3nc(C)n(CCOc4ccc(Cl)cc4-c4cc(C)nc5c(C(=O)O)csc45)c(=O)c3c2C#N)n1 [compound 684]
30 | < 50 nM |  | Cc1cc2nc(C)n(CCOc3ccc(Cl)cc3-c3cc(C)nc4c(C(=O)O)csc34)c(=O)c2c(C#N)n1 [compound 685]
31 | < 50 nM | 26.5 nM | Cc1cc(-c2cc(Cl)ccc2OCCn2c(C)nc3cc(C(F)(F)F)c(-c4ccnc(C)c4C)c(C#N)c3c2=O)c2scc(C(=O)O)c2n1 [compound 686]
32 | < 50 nM | 13.5 nM | Cc1cc(-c2cc(Cl)ccc2OCCn2c(C)nc3cc(C(F)(F)F)c(N4CC(F)(F)C4)c(C#N)c3c2=O)c2scc(C(=O)O)c2n1 [compound 687]
33 | < 50 nM | 22.8 nM | Cc1cc(-c2cc(Cl)ccc2OCCn2c(C)nc3cc(Cl)c(N4CC(F)(F)C4)c(C#N)c3c2=O)c2scc(C(=O)O)c2n1 [compound 688]
34 | < 50 nM | 11.5 nM | Cc1cc(-c2cc(Cl)ccc2OCCn2c(C)nc3cc(Cl)c(N4CC(C(F)(F)F)C4)c(C#N)c3c2=O)c2scc(C(=O)O)c2n1 [compound 689]
35 | < 50 nM | 5.95 nM | Cc1cc(-c2cc(Cl)ccc2OCCn2c(C)nc3cc(Cl)c(N4CCC(F)(F)C4)c(C#N)c3c2=O)c2scc(C(=O)O)c2n1 [compound 690]
36 | < 50 nM | 7.17 nM | Cc1cc(-c2cc(Cl)ccc2OCCn2c(C)nc3cc(Cl)c(N4CC(C)(C)C4)c(C#N)c3c2=O)c2scc(C(=O)O)c2n1 [compound 691]
37 | < 50 nM | 5.97 nM | Cc1cc(-c2cc(Cl)ccc2OCCn2c(C)nc3cc(Cl)c(N)c(C#N)c3c2=O)c2scc(C(=O)O)c2n1 [compound 692]
38 | < 50 nM | 15 nM | Cc1cc(-c2cc(Cl)ccc2OCCn2c(C)nc3cc(Cl)cc(C#N)c3c2=O)c2scc(C(=O)O)c2n1 [compound 693]
39 | < 50 nM | 19.1 nM | CNc1c(Cl)cc2nc(C)n(CCOc3ccc(Cl)cc3-c3cc(C)nc4c(C(=O)O)csc34)c(=O)c2c1C#N [compound 694]
40 | < 50 nM | 1.05 nM | Cc1cc(-c2cc(Cl)ccc2OCCn2c(C)nc3cc(Cl)c(O)c(C#N)c3c2=O)c2scc(C(=O)O)c2n1 [compound 695]
41 | < 50 nM | 8.94 nM | Cc1cc(-c2cc(Cl)ccc2OCCn2c(C)nc3cc(Cl)c(N(C)C)c(C#N)c3c2=O)c2scc(C(=O)O)c2n1 [compound 696]
42 | < 50 nM | 10.2 nM | Cc1cc(-c2cc(Cl)ccc2OCCn2c(C)nc3cc(Cl)c(N4CCCC4=O)c(C#N)c3c2=O)c2scc(C(=O)O)c2n1 [compound 697]
43 | < 50 nM | 3.4 nM | Cc1cc(-c2cc(Cl)ccc2OCCn2c(C)nc3cc(Cl)c(N4CC(O)C4)c(C#N)c3c2=O)c2scc(C(=O)O)c2n1 [compound 698]
44 | < 50 nM | 22.4 nM | Cc1cc(-c2cc(Cl)ccc2OCCn2c(C)nc3cc(Cl)c(Nc4cccnc4)c(C#N)c3c2=O)c2scc(C(=O)O)c2n1 [compound 700]
45 | < 50 nM | 19.2 nM | COC1CN(c2c(Cl)cc3nc(C)n(CCOc4ccc(Cl)cc4-c4cc(C)nc5c(C(=O)O)csc45)c(=O)c3c2C#N)C1 [compound 701]
46 | < 50 nM | 12.7 nM | Cc1cc(-c2cc(Cl)ccc2OCCn2c(C)nc3cc(Cl)c(N4CC(S(C)(=O)=O)C4)c(C#N)c3c2=O)c2scc(C(=O)O)c2n1 [compound 702]
47 | < 50 nM | 3.18 nM | Cc1cc(-c2cc(Cl)ccc2OCCn2c(C)nc3cc(Cl)c(N4CC(C)(CO)C4)c(C#N)c3c2=O)c2scc(C(=O)O)c2n1 [compound 703]
48 | 50 to 1000 nM | 89 nM | CSC1CN(c2c(Cl)cc3nc(C)n(CCOc4ccc(Cl)cc4-c4cc(C)nc5c(C(=O)O)csc45)c(=O)c3c2C#N)C1 [compound 704]
49 | 50 to 1000 nM | 87.8 nM | Cc1cc(-c2cc(Cl)ccc2OCCn2c(C)nc3cc(C(F)(F)F)c(C4CCCN4C)c(C#N)c3c2=O)c2scc(C(=O)O)c2n1 (centres unmarked) [compound 708]
50 | 50 to 1000 nM | 56.7 nM | Cc1cc(-c2cc(Cl)ccc2OCCn2c(C)nc3cc(C(F)(F)F)c(CCCN(C)C)c(C#N)c3c2=O)c2scc(C(=O)O)c2n1 [compound 709]
51 | < 50 nM | 31.6 nM | Cc1cc(-c2cc(Cl)ccc2OCCn2c(C)nc3cc(C(C)N(C)C)c(OC(F)F)c(C#N)c3c2=O)c2scc(C(=O)O)c2n1 (centres unmarked) [compound 710]
52 | 50 to 1000 nM | 77.5 nM | Cc1cc(-c2cc(Cl)ccc2OCCn2c(C)nc3cc(C(F)(F)F)c(C(C)N(C)C)c(C#N)c3c2=O)c2scc(C(=O)O)c2n1 (centres unmarked) [compound 711]
